Results as given in paper PMC12547551, “Lanostane–Meroterpene Conjugates with Unusual Aryl Ether Linkage and a Lanostane Dimer from Artificially Cultivated Fruiting Bodies of Ganoderma cf. hochiminhense” (ACS Omega, 2025).
Converted amounts (≈) assume the structure as drawn.

Columns and labels:
[1] = test system: MCF-7 (breast cancer) cells; experiment: Cytotoxicity against MCF-7 cells, resazurin fluorescent method; assay type: cell-based; conditions: Homo sapiens, MCF7
[2] = test system: NCI-H187 (small-cell lung cancer) cells; experiment: Cytotoxicity against NCI-H187 cells, resazurin fluorescent method; assay type: cell-based; conditions: Homo sapiens
Vero cells = experiment: Cytotoxicity to Vero cells, green fluorescent protein detection method; assay type: cell-based, African green monkey; conditions: Chlorocebus sabaeus; nonmalignant Vero cells
Plasmodium falciparum K1 = experiment: Antiplasmodial assay, microculture radioisotope technique; assay type: cell-based; conditions: P. falciparum K1, standard drug
[3] = test system: Mycobacterium tuberculosis H37Ra; experiment: Antimycobacterial activity, green fluorescent protein detection method; assay type: cell-based; conditions: M. tuberculosis H37Ra, standard drugs

| Compound | IC50 [1] [µM] | IC50 [2] [µM] | IC50 (Vero cells) [µM] | IC50 (Plasmodium falciparum K1) [µM] | MIC [3] [µg/mL] |
| --- | --- | --- | --- | --- | --- |
| CCC(=O)CC[C@@]1(C)OC[C@]23[C@@H](O)C(=O)C4=C(C(=O)C[C@@H]([C@@]5(C)CO5)[C@]4(C)CCC(=O)O[C@@H](CC[C@@H](C)[C@H]4CC[C@@]5(C)C6=CC[C@H]7C(C)(C)C(=O)CC[C@]7(C)C6=CC[C@]45C)C(C)(C)O)[C@]2(C)CC[C@@H]31 [ganohochimate A (9), Ganohochimate A] | > 52 | > 52 | 52 | – | – |
| CC(C)=CCC/C(=C/Cc1cc(O)ccc1OC(C)(C)[C@@H](O)CC[C@@H](C)[C@H]1CC[C@@]2(C)C3=CC[C@H]4C(C)(C)[C@@H](O)CC[C@]4(C)C3=CC[C@]12C)C(=O)O [ganohochimin F (6), Ganohochimin F] | > 70 | 7.7 | 6.3 | – | – |
| CC(C)=CCC/C(=C/Cc1cc(O)ccc1OC(C)(C)[C@@H](O)CC[C@@H](C)[C@H]1CC[C@@]2(C)C3=CC[C@H]4C(C)(C)C(=O)CC[C@]4(C)C3=CC[C@]12C)C(=O)O [ganohochimin E (5), Ganohochimin E] | > 70 | 21 | 13 | – | – |
| CC(C)=CCC/C(C)=C/CC/C(=C/Cc1cc(OC(C)(C)[C@@H](O)CC[C@@H](C)[C@H]2CC[C@@]3(C)C4=CC[C@H]5C(C)(C)[C@@H](O)CC[C@]5(C)C4=CC[C@]23C)ccc1O)C(=O)O [ganohochimin D (4), Ganohochimin D] | > 64 | 16 | 28 | – | – |
| COc1cccc2c1C(=O)c1c(O)c3c(c(O)c1C2=O)C[C@@](O)(C(=O)CO)C[C@@H]3O[C@H]1C[C@H](N)[C@H](O)[C@H](C)O1 [doxorubicin, reference compound] | 11 | 0.15 | – | – | – |
| CC(C)=CCC/C(C)=C/CC/C(=C/Cc1cc(OC(C)(C)[C@@H](O)CC[C@@H](C)[C@H]2CC[C@@]3(C)C4=CC[C@H]5C(C)(C)C(=O)CC[C@]5(C)C4=CC[C@]23C)ccc1O)C(=O)O [ganohochimin C (3), Ganohochimin C] | > 64 | 21 | 30 | – | – |
| C[C@H]1[C@@H](O)O[C@@H]2O[C@@]3(C)CC[C@H]4[C@H](C)CC[C@@H]1[C@@]24OO3 [Dihydroartemisinin] | – | – | – | 0.0014 | – |
| CC(C)=CCCC(C)=CCCC(=CCc1cc(O)ccc1OC(C)(C)C(O)CCC(C)C1CCC2(C)C3=CCC4C(C)(C)C(=O)CCC4(C)C3=CCC12C)C(=O)O (centres unmarked) [ganohochimin A (1), Ganohochimin A] | > 64 | 19 | 17 | – | – |
| CC(C)=CCC/C(=C/Cc1cc(OC(C)(C)[C@@H](O)CC[C@@H](C)[C@H]2CC[C@@]3(C)C4=CC[C@H]5C(C)(C)[C@@H](O)CC[C@]5(C)C4=CC[C@]23C)ccc1O)C(=O)O [ganohochimin H (8), Ganohochimin H] | > 70 | 18 | 24 | – | – |
| CO[C@H]1/C=C/O[C@@]2(C)Oc3c(C)c(O)c4c(O)c(c(/C=N/N5CCN(C)CC5)c(O)c4c3C2=O)NC(=O)/C(C)=C\C=C\[C@H](C)[C@H](O)[C@@H](C)[C@@H](O)[C@@H](C)[C@H](OC(C)=O)[C@@H]1C [Rifampicin] | – | – | – | – | 0.025 (≈ 0.0304 µM) |
| CCN(CC)CCCC(C)Nc1ccnc2cc(Cl)ccc12 (centres unmarked) [chloroquine] | – | – | – | 0.58 | – |
| CC(C)=CCC/C(C)=C/CC/C(=C/Cc1cc(O)ccc1OC(C)(C)[C@@H](O)CC[C@@H](C)[C@H]1CC[C@@]2(C)C3=CC[C@H]4C(C)(C)[C@@H](O)CC[C@]4(C)C3=CC[C@]12C)C(=O)O [ganohochimin B (2), Ganohochimin B] | > 64 | 33 | 28 | – | – |
| CC(C)=CCC/C(=C/Cc1cc(OC(C)(C)[C@@H](O)CC[C@@H](C)[C@H]2CC[C@@]3(C)C4=CC[C@H]5C(C)(C)C(=O)CC[C@]5(C)C4=CC[C@]23C)ccc1O)C(=O)O [ganohochimin G (7), Ganohochimin G] | > 70 | 21 | 14 | – | – |
| Cc1c2ccncc2c(C)c2c1[nH]c1ccccc12 [ellipticine, reference compound] | – | 7.6 | 6 | – | – |
| CC(C)=CCC/C(=C/Cc1cc(O)ccc1O)C(=O)O [fornicin F (10), Fornicin F] | > 181 | 134 | > 181 | – | – |
| NNC(=O)c1ccncc1 [isoniazid] | – | – | – | – | 0.375 (≈ 2.73 µM) |
